The values that follow come from US6486174B2, “Tetrahydroisoquinoline-3-carboxylic acid alkoxyguanidines as integrin antagonists” (3-Dimensional Pharmaceuticals, Inc., priority 2000, dated 2002).

Where a name gives a salt, the structure may show the parent alone.

The target in the experiment is T1, human αvβ3 (Homo sapiens, UniProt P05106+P06756).
T1 construct: purchased Chemicon CC1019
As to the kind of experiment: αvβ3-vitronectin assay (ELISA, inhibition of biotinylated vitronectin binding). The settings on record: plate-coated human αvβ3, biotinylated human vitronectin 0.5 μg/mL, room temperature; read-out: αvβ3 IC50 (Inhibition of the αvβ3-Vitronectin Interaction). As to the method: The assay was based on the method of Niiya (Niiya, K., et al, Blood 70:475-483 (1987)). All the steps were performed at room temperature. Costar 9018 flat-bottom 96-well ELISA plates were coated overnight with 100 μL/well of 0.4 μg/mL human αvβ3 (Chemicon CC1019) in TS buffer (20 mM Tris-HCl pH 7.5, 150 mM NaCl, 1 mM CaCl2, 1 mM MgCl2, 1 mM MnCl2). Plates were blocked for 2 hours with 200 μL/well of TS buffer containing 1% BSA (TSB buffer), and washed 3 times with 200 μL/well of PBST buffer. Controls or test compound were mixed with 0.5 μg/mL of human vitronectin (Chemicon CC080) that had been biotinylated in-house with sulfo-NHS-LC-LC-biotin (Pierce 21338, 20:1 molar ratio), and 100 μL/well of these solutions (in TSB buffer) were incubated for 2 hours. The plate was then washed 5 times with PBST buffer, and 100 μL/well of 0.25 μg/mL NeutrAvidin-horseradish peroxidase conjugate (Pierce 31001) in TSB buffer was incubated for 1 hour. Following a 5-fold PBST buffer wash, the plate was developed by adding 100 μL/well of 0.67 mg o-phenylenediamine dihydrochloride per mL of 0.012% H2O2, 22 mM sodium citrate, 50 mM sodium phosphate, pH 5.0 at room temperature. The reaction was stopped with 50 μL/well of 2M H2SO4, and the absorbence at 492 nm was recorded. Percent (%) inhibition was calculated from the average of two separate determinations relative to buffer controls (no test compound added), and a four parameter fit (Marquardt, D. W., J. Soc. Indust. Appl. Math. 11:431-441 (1963)) was used to estimate the half maximal inhibition concentration (IC50).
In general terms: ELISA stands for enzyme-linked immunosorbent assay.

T1 sequence (P06756 31-889 limits assumed): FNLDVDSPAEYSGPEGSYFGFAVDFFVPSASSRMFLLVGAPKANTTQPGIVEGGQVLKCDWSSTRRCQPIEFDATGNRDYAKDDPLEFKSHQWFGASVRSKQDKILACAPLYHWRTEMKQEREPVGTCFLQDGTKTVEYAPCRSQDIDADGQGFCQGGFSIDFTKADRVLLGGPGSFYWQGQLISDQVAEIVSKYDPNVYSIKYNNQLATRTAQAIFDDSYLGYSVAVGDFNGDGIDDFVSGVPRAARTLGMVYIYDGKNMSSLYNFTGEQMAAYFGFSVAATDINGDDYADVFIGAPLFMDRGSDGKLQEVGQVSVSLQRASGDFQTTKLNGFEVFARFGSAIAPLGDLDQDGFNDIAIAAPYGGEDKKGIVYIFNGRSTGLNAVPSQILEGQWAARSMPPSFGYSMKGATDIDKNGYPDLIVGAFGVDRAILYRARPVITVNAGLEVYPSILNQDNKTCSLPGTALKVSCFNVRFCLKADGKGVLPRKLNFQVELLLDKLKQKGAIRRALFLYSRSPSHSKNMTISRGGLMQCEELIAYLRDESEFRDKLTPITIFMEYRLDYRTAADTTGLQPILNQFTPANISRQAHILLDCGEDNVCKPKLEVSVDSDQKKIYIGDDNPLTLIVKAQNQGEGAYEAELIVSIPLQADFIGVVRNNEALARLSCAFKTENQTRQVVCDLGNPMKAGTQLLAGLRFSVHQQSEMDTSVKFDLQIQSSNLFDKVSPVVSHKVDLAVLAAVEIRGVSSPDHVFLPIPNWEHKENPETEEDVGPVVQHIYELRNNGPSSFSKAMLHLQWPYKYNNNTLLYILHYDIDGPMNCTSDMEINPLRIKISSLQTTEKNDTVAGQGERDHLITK
T1 sequence (P06756 891-1048 partner limits assumed): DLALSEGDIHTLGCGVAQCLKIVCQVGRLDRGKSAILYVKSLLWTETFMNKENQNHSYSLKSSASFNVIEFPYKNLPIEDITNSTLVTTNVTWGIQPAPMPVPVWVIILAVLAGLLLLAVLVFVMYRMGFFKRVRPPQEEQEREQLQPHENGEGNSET
T1 sequence (P05106 27-788): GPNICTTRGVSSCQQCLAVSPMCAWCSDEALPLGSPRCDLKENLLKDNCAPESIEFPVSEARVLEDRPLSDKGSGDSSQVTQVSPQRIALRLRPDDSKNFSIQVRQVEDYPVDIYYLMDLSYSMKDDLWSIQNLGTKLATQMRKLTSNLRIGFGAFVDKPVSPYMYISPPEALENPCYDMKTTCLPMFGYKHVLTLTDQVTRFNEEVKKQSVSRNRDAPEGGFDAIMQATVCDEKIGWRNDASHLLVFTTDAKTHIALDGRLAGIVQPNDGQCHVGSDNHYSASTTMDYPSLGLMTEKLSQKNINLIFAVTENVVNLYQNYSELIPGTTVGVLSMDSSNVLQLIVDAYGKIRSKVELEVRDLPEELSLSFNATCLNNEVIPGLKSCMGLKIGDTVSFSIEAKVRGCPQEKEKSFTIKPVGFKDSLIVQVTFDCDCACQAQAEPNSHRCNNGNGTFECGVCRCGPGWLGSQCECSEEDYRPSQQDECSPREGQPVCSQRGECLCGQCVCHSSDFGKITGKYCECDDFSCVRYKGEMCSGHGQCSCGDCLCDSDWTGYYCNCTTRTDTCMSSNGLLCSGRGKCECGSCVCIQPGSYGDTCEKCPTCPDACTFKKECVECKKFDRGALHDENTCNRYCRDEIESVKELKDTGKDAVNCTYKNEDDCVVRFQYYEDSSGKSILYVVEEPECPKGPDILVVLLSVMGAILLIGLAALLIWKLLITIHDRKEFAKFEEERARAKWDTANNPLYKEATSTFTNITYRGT

As for `N=C(N)NOCCCOc1ccc2c(c1)CN(S(=O)(=O)c1ccccc1)[C@H](C(=O)O)C2` [Example 2, (3S)-7-[3-(Amidinoaminooxy)propoxy]-2-(phenylsulfonyl)-1,2,3,4-tetrahydroisoquinoline-3-carboxylic Acid Trifluoroacetic Acid Salt], the IC50 was found to be 1100 nM. For `COc1ccc(OC)c(S(=O)(=O)N2Cc3cc(OCCCONC(=N)N)ccc3C[C@H]2C(=O)O)c1` [Example 1, (3S)-7-[3-(Amidinoaminooxy)propoxy]-2-[(2,5-dimethoxyphenyl)sulfonyl]-1,2,3,4-tetrahydroisoquinoline-3-carboxylic acid trifluoroacetic Acid Salt] the value was 73 nM. As to `N=C(N)NOCCCOc1ccc2c(c1)CN(S(=O)(=O)c1ccc3ccccc3c1)[C@H](C(=O)O)C2` [Example 3, (3S)-7-[3-(Amidinoaminooxy)propoxy]-2-(2-naphthylsulfonyl)-1,2,3,4-tetrahydroisoquinoline-3-carboxylic Acid Trifluoroacetic Acid Salt], the half-maximal inhibitory concentration (IC50) was determined as 500 nM.

As a reminder, the IC50 is the concentration needed to halve the response being measured.
